The test concerns the target T1, N-type calcium channel α1B (Cav2.2), β3 and α2δ subunits (Homo sapiens, UniProt Q00975).
T1 construct: expressed in transfected cells
Briefly: Functional assay, antagonism of N-type calcium channel (FDSS calcium mobilization response to KCl depolarization). In kind it is cell-based. The note with it: for IC50: HEK stable cell line, 50 mM KCl depolarization, six-point concentration-response; for inhibition at 0.33 µM: 0.33 μM compound; for inhibition at 0.33 µM / inhibition at 1 µM: FDSS, 50 mM KCl; for inhibition at 1 µM: 1 μM compound. The protocol: A stable cell line (HEK parent) co-expressing the α1B (Cav2.2), β3 and α2δ subunits of the N-type calcium channel subunits was used. These cells were routinely grown as monolayers in low glucose-containing Dulbecco's Modified Eagle Medium supplemented with 10% FBS, 2 mM L-glutamine, 100 I.U./mL penicillin, 100 μg/mL streptomycin, 400 μg/mL G418 and 200 μg/mL Zeocin (split ratio=1:5). Cells were maintained in 5% CO2 at 37° C. Compounds of Formula (I) were prepared as 10 mM stocks in DMSO from neat compound, if available. Otherwise, the 5 or 10 mM DMSO stock solutions provided in-house were used.
Calcium mobilization responses to KCl depolarization were evaluated by measuring the intensity of calcium-mediated fluorescent signal in the presence of BD Calcium Assay Dye (BD Biosciences, Franklin Lakes, N.J., U.S.A.), utilizing a Functional Drug Screening System (FDSS) by Hamamatsu Corporation (Bridgewater, N.J. U.S.A.).
Twenty-four hr prior to assay, cells were seeded in clear-base poly-D-lysine-coated 384-well plates (BD Biosciences) at a density of 5,000 cells per well in culture medium and grown overnight in 5% CO2 at 37° C. On the day of assay, growth media were removed, and cells were loaded with BD calcium assay dye (BD Biosciences) for 35 min at 37° C. under 5% CO2 and then for 25 min at room temp. Utilizing the FDSS, cells were exposed to representative compounds of Formula (I) at varying concentrations, and intracellular calcium was measured for 5 min prior to the addition of 50 mM KCl for an additional 3 min of measurement.
IC50 values for representative compounds of Formula (I) were determined from six-point concentration-response experiments and represent the concentration of said compound required to inhibit 50% of the maximal response. Maximal fluorescence intensity (FI) achieved upon addition of 50 mM KCl was exported from the FDSS software and further analyzed using GraphPad Prism 3.02 (Graph Pad Software Inc., San Diego, Calif., U.S.A.). Data were normalized to the maximum average counts from quadruplicate wells for each condition in the presence of 50 mM KCl and to the minimum average counts in the presence of buffer. Theoretical curves were generated using nonlinear regression curve-fitting analysis of either sigmoidal concentration-response or sigmoidal concentration-response (variable slope), and the IC50 values with the best-fit curve determined by GraphPad Prism were reported.
For orientation: Calcium flux is commonly read through the fluorescence of an indicator in the cells.

T1 sequence (Q00975 whole entry): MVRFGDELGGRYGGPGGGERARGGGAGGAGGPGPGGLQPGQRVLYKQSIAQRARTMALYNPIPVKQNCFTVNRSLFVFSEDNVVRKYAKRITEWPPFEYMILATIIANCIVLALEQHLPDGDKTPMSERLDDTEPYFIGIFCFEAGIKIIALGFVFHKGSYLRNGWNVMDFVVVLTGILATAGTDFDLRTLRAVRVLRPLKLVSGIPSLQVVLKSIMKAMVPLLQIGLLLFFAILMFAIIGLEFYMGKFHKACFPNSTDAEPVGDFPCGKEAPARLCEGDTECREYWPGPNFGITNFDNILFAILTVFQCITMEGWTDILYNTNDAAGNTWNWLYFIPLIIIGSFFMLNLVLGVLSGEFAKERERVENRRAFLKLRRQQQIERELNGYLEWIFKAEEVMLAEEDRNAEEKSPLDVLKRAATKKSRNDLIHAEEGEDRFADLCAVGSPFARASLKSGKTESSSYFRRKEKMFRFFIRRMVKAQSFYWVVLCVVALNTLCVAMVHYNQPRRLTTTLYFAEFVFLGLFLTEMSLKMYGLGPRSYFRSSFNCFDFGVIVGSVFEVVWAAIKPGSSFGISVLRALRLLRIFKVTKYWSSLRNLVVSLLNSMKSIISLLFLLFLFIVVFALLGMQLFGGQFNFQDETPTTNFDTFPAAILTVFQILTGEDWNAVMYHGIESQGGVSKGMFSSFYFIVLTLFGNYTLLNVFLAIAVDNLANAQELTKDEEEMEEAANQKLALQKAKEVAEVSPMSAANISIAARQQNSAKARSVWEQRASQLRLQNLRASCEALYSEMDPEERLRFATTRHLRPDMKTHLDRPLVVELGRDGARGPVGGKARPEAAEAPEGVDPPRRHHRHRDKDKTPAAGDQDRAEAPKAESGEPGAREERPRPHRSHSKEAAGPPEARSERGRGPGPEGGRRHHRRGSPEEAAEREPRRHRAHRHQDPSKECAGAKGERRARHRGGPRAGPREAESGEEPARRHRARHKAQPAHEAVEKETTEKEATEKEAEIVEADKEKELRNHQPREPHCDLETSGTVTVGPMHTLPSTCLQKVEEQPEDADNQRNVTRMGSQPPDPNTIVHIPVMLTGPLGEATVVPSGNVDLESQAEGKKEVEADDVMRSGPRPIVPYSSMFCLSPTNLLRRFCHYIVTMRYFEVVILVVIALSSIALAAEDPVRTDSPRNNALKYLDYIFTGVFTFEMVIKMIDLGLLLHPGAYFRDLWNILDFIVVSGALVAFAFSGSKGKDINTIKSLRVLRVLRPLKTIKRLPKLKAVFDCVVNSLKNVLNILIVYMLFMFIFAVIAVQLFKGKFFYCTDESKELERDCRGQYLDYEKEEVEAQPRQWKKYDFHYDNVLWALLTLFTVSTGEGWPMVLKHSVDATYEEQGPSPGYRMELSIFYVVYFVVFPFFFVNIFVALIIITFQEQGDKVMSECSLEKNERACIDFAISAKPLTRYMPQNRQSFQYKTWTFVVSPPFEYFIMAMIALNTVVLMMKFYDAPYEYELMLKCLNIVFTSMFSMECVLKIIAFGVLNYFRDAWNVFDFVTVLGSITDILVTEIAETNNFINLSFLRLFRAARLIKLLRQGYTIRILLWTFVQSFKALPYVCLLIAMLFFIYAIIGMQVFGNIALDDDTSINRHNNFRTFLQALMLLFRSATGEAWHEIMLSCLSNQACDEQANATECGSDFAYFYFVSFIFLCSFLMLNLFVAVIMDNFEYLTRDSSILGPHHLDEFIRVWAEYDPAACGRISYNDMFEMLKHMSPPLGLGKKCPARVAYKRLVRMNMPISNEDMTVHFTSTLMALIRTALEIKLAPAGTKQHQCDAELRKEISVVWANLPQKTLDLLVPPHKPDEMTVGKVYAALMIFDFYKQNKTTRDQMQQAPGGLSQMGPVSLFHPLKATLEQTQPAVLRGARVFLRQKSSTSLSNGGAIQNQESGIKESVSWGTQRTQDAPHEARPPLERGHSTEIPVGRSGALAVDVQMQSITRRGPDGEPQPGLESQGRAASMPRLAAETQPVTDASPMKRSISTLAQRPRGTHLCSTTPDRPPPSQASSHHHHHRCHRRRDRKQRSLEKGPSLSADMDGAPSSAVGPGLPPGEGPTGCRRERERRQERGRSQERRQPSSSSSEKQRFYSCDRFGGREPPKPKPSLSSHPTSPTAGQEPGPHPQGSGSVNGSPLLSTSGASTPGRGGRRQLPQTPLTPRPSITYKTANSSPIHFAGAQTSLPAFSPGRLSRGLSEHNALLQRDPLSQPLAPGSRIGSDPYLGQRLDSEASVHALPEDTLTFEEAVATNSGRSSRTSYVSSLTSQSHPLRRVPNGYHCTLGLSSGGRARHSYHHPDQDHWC
T1 sequence (P54284 whole entry partner): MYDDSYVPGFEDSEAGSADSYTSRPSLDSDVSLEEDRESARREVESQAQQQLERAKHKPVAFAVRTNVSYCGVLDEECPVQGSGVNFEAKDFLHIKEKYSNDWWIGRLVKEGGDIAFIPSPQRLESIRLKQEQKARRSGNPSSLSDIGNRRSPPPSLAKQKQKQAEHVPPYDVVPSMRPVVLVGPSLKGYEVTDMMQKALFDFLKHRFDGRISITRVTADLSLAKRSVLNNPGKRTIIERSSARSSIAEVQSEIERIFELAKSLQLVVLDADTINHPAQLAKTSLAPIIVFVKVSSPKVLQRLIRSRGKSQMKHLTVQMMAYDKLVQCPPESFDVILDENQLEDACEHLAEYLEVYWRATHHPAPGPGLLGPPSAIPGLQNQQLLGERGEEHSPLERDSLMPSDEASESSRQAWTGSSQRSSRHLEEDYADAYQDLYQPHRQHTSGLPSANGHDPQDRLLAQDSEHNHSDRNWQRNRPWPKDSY
T1 sequence (P54289 25-956 partner limits assumed): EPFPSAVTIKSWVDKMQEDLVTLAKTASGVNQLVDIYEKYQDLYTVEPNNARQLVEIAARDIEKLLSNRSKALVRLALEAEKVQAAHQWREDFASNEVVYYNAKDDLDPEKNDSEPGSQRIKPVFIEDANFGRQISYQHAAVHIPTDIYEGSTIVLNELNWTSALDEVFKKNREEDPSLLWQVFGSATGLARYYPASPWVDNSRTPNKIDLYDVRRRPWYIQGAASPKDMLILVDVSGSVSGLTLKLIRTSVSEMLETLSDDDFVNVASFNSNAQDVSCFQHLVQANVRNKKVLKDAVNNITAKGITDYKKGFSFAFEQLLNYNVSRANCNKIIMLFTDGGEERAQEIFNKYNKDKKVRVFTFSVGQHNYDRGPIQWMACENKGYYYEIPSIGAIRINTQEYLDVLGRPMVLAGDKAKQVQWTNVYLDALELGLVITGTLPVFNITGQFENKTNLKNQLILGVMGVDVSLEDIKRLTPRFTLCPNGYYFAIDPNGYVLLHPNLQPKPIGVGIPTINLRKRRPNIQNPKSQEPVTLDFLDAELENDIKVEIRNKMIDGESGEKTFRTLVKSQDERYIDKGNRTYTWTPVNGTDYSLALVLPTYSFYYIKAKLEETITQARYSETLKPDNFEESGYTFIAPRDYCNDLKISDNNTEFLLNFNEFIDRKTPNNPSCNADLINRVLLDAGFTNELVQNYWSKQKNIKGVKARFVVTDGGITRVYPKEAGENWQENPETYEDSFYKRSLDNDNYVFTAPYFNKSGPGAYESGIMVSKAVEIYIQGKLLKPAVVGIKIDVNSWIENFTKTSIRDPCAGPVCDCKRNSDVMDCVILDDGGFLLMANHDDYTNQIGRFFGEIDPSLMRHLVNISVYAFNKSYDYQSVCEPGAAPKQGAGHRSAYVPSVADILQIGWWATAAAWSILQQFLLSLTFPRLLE
T1 sequence (P54289 957-1103 partner limits assumed): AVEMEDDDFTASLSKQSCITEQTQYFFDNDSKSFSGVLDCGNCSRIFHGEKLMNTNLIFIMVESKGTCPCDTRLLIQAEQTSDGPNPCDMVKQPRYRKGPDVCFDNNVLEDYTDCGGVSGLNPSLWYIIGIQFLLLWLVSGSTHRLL

In general, IC50 refers to the midpoint of a concentration-inhibition curve. As for `Cc1ccc(S(=O)(=O)N2Cc3nn(-c4ccccc4C(F)(F)F)c(-c4ccc(Cl)cc4)c3C2)cc1` [Cpd 17, 3-(4-Chlorophenyl)-5-[(4-methylphenyl)sulfonyl]-2-[2-(trifluoromethyl)phenyl]-2,4,5,6-tetrahydropyrrolo[3,4-c]pyrazole], the IC50 turned out to be 0.3 µM.

Regarding `COc1ccccc1-n1nc2c(c1-c1ccc(Cl)cc1)CN(S(=O)(=O)CCN1C(=O)CCC1=O)C2` [Cpd 42, 1-(2-{[3-(4-Chlorophenyl)-2-(2-methoxyphenyl)-2,6-dihydropyrrolo[3,4-c]pyrazol-5(4H)-yl]sulfonyl}ethyl)pyrrolidine-2,5-dione], the IC50 worked out at 0.048 µM.

Regarding `O=S1(=O)CCC(S(=O)(=O)N2Cc3nn(-c4ccccc4OC(F)(F)F)c(-c4ccc(Cl)cc4)c3C2)C1` (stereo not shown) [Cpd 48, 3-(4-Chlorophenyl)-5-[(1,1-dioxidotetrahydrothiophen-3-yl)sulfonyl]-2-[2-(trifluoromethoxy)phenyl]-2,4,5,6-tetrahydropyrrolo[3,4-c]pyrazole], the 50% inhibitory concentration (IC50) turned out to be 0.077 µM.

For the molecule `CCc1ccccc1-n1nc2c(c1-c1ccc(Cl)cc1)CN(C(=O)c1cccnc1)C2` [Cpd 4, 3-(4-Chlorophenyl)-2-(2-ethylphenyl)-5-(pyridin-3-ylcarbonyl)-2,4,5,6-tetrahydropyrrolo[3,4-c]pyrazole], the IC50 is 0.2 µM.

With `COc1ccccc1-n1nc2c(c1-c1ccc(Cl)cc1)CN(S(=O)(=O)CCOc1ccccc1)C2` [Cpd 43, 3-(4-Chlorophenyl)-2-(2-methoxyphenyl)-5-[(2-phenoxyethyl)sulfonyl]-2,4,5,6-tetrahydropyrrolo[3,4-c]pyrazole], the 50% inhibitory concentration (IC50) came out at 0.1 µM.

Broadly, the inhibition is the relative decrease from the control value, in per cent. For `COc1ccc(-n2nc3c(c2-c2ccc(Cl)cc2)CN(S(=O)(=O)C(C)C)C3)c(C)c1` [Cpd 67, 3-(4-Chlorophenyl)-2-(4-methoxy-2-methylphenyl)-5-[(1-methylethyl)sulfonyl]-2,4,5,6-tetrahydropyrrolo[3,4-c]pyrazole], the inhibition at 0.33 µM amounted to 61% and the IC50 turned out to be 0.19 µM.

As to `COc1cc(F)ccc1-n1nc2c(c1-c1ccc(Cl)cc1)CN(S(C)(=O)=O)C2` [Cpd 70, 3-(4-Chlorophenyl)-2-(4-fluoro-2-methoxyphenyl)-5-(methylsulfonyl)-2,4,5,6-tetrahydropyrrolo[3,4-c]pyrazole], the inhibition at 0.33 µM stood at 74% and the IC50 worked out at 0.075 µM.

In the case of `COc1ccc(-n2nc3c(c2-c2ccc(Cl)cc2)CN(S(=O)(=O)N2CCC(C)CC2)C3)c(F)c1` [Cpd 80, 3-(4-Chlorophenyl)-2-(2-fluoro-4-methoxyphenyl)-5-[(4-methylpiperidin-1-yl)sulfonyl]-2,4,5,6-tetrahydropyrrolo[3,4-c]pyrazole], the inhibition at 0.33 µM was 62% and the IC50 came out at 0.14 µM.

On to `CCc1ccccc1-n1nc2c(c1-c1ccc(Cl)cc1)CN(C(=O)c1cc(C)on1)C2` [Cpd 9, 3-(4-Chlorophenyl)-2-(2-ethylphenyl)-5-[(5-methylisoxazol-3-yl)carbonyl]-2,4,5,6-tetrahydropyrrolo[3,4-c]pyrazole], for which the inhibition at 1 µM is 63%.

As to `CC(C)Oc1ccccc1-n1nc2c(c1-c1ccc(Cl)cc1)CN(S(=O)(=O)N(C)C)C2` [Cpd 63, 3-(4-Chlorophenyl)-N,N-dimethyl-2-[2-(1-methylethoxy)phenyl]-2,6-dihydropyrrolo[3,4-c]pyrazole-5(4H)-sulfonamide], the IC50 was 0.003 µM.

As for `CCc1ccccc1-n1nc2c(c1-c1ccc(Cl)cc1)CN(C(=O)OC(C)(C)C)C2` [Cpd 1, tert-Butyl 3-(4-chlorophenyl)-2-(2-ethylphenyl)-2,6-dihydropyrrolo[3,4-c]pyrazole-5(4H)-carboxylate], the IC50 worked out at 0.18 µM.

For the molecule `COc1ccccc1-n1nc2c(c1-c1ccc(Cl)cc1)CN(S(=O)(=O)Cc1ccccc1)C2` [Cpd 39, 5-(Benzylsulfonyl)-3-(4-chlorophenyl)-2-(2-methoxyphenyl)-2,4,5,6-tetrahydropyrrolo[3,4-c]pyrazole], the IC50 came out at 0.027 µM.

As to `CC(C)(C)OC(=O)N1Cc2nn(-c3ccccc3C(F)(F)F)c(-c3ccc(Cl)cc3)c2C1` [Cpd 14, tert-Butyl 3-(4-chlorophenyl)-2-[2-(trifluoromethyl)phenyl]-2,6-dihydropyrrolo[3,4-c]pyrazole-5(4H)-carboxylate], the inhibition at 1 µM stood at 60%.

Consider `CN(C)S(=O)(=O)N1Cc2nn(-c3ccccc3OC(C)(C)C)c(-c3ccc(Cl)cc3)c2C1` [Cpd 91, 2-(2-tert-Butoxyphenyl)-3-(4-chlorophenyl)-N,N-dimethyl-2,6-dihydropyrrolo[3,4-c]pyrazole-5(4H)-sulfonamide], for which the inhibition at 0.33 µM stood at 87% and the IC50 amounted to 0.063 µM.

For `CN(C)S(=O)(=O)N1Cc2nn(-c3ccccc3OCC(F)(F)F)c(-c3ccc(Cl)cc3)c2C1` [Cpd 90, 3-(4-Chlorophenyl)-N,N-dimethyl-2-[2-(2,2,2-trifluoroethoxy)phenyl]-2,6-dihydropyrrolo[3,4-c]pyrazole-5(4H)-sulfonamide], the inhibition at 0.33 µM was 80% and the IC50 is 0.085 µM.

In the case of `CCOc1ccccc1-n1nc2c(c1-c1ccc(Cl)cc1)CN(S(=O)(=O)Cc1ccccc1)C2` [Cpd 53, 5-(Benzylsulfonyl)-3-(4-chlorophenyl)-2-(2-ethoxyphenyl)-2,4,5,6-tetrahydropyrrolo[3,4-c]pyrazole], the IC50 is 0.007 µM.

With `COc1ccc(-n2nc3c(c2-c2ccc(Cl)cc2)CN(S(C)(=O)=O)C3)c(F)c1` [Cpd 78, 3-(4-Chlorophenyl)-2-(2-fluoro-4-methoxyphenyl)-5-(methylsulfonyl)-2,4,5,6-tetrahydropyrrolo[3,4-c]pyrazole], the inhibition at 0.33 µM was 62% and the IC50 was determined as 0.2 µM.

Consider `COc1ccccc1-n1nc2c(c1-c1ccc(Cl)cc1)CN(S(=O)(=O)CCN1C(=O)c3ccccc3C1=O)C2` [Cpd 38, 2-(2-{[3-(4-Chlorophenyl)-2-(2-methoxyphenyl)-2,6-dihydropyrrolo[3,4-c]pyrazol-5(4H)-yl]sulfonyl}ethyl)-1H-isoindole-1,3(2H)-dione], for which the IC50 came out at 0.053 µM.

Regarding `CC(C)(C)OC(=O)NCC(=O)N1Cc2nn(-c3ccccc3C(F)(F)F)c(-c3ccc(Cl)cc3)c2C1` [Cpd 18, tert-Butyl{2-[3-(4-chlorophenyl)-2-[2-(trifluoromethyl)phenyl]-2,6-dihydropyrrolo[3,4-c]pyrazol-5(4H)-yl]-2-oxoethyl}carbamate], the IC50 is 0.48 µM.

Take `CCc1ccccc1-n1nc2c(c1-c1ccc(Cl)cc1)CN(C(=O)c1ccccn1)C2` [Cpd 7, 3-(4-Chlorophenyl)-2-(2-ethylphenyl)-5-(pyridin-2-ylcarbonyl)-2,4,5,6-tetrahydropyrrolo[3,4-c]pyrazole]: the inhibition at 1 µM is 58%.

For the molecule `COc1ccccc1-n1nc2c(c1-c1cnc3ccccc3c1)CN(S(=O)(=O)C(C)C)C2` [Cpd 93, 3-{2-(2-Methoxyphenyl)-5-[(1-methylethyl)sulfonyl]-2,4,5,6-tetrahydropyrrolo[3,4-c]pyrazol-3-yl}quinoline], the IC50 was 0.1 µM.

Turning to `COc1ccccc1-n1nc2c(c1-c1ccc(Cl)cc1)CN(C(=O)CNC(=O)OC(C)(C)C)C2` [Cpd 29, tert-Butyl{2-[3-(4-chlorophenyl)-2-(2-methoxyphenyl)-2,6-dihydropyrrolo[3,4-c]pyrazol-5(4H)-yl]-2-oxoethyl}carbamate], the IC50 was determined as 0.18 µM.

Values taken from US8846949B2, “Pyrrolopyrazoles as N-type calcium channel blockers” (Janssen Pharmaceutica NV, priority 2012, dated 2014).
